Results taken from ChEMBL document CHEMBL5505981, “Design, synthesis and biological evaluation of novel 1,2,4a,5-tetrahydro-4H-benzo[b][1,4]oxazino[4,3-d][1,4]oxazine-based AAK1 inhibitors with anti-viral property against SARS-CoV-2” (Eur J Med Chem, 2024).
Activity calls are given as the source filed them. No cut-off for these calls is given here.

Assays:
SARS-CoV-2 [1] = assay: microbe, parasite or virus in culture; settings: Severe acute respiratory syndrome coronavirus 2, HEK293
SARS-CoV-2 [2] = format: functional, organism-based; settings: Severe acute respiratory syndrome coronavirus 2; HEK293; dose 3.0 µM, time 25.0 hrs
SARS-CoV-2 [3] = format: functional, organism-based; settings: Severe acute respiratory syndrome coronavirus 2; HEK293; dose 3.0 µM, time 4.0 hrs
HEK293 [4] = format: cell-based; settings: Homo sapiens, dose 1-3 µM, time 4.0 hrs
SARS-CoV-2 [5] = format: functional, organism-based; settings: Severe acute respiratory syndrome coronavirus 2; HEK293; dose 10.0 µM, time 6.0 hrs
HEK293 [6] = format: cell-based; settings: Homo sapiens, dose 5-10 µM, time 4.0 hrs
SARS-CoV-2 [7] = format: functional, organism-based; settings: Severe acute respiratory syndrome coronavirus 2; HEK293; dose 10.0 µM, time 6.0 hrs; remark: listed apart in the source
SARS-CoV-2 [8] = format: functional, organism-based; settings: Severe acute respiratory syndrome coronavirus 2; HEK293; dose 5.0 µM, time 6.0 hrs
SARS-CoV-2 [9] = format: functional, organism-based; settings: Severe acute respiratory syndrome coronavirus 2; HEK293; dose 5.0 µM, time 6.0 hrs; remark: listed apart in the source

| SMILES | IC50 (SARS-CoV-2 [1]) | inhibition (SARS-CoV-2 [2]) | Activity (SARS-CoV-2 [3]) | inhibition (HEK293 [4]) | Activity (SARS-CoV-2 [5]) | inhibition (HEK293 [6]) | Activity (SARS-CoV-2 [7]) | Activity (SARS-CoV-2 [8]) | Activity (SARS-CoV-2 [9]) |
| --- | --- | --- | --- | --- | --- | --- | --- | --- | --- |
| CCN(CC)CCNC(=O)c1c(C)[nH]c(/C=C2\C(=O)Nc3ccc(F)cc32)c1C [SUNITINIB] | ~1.96 µM |  |  |  |  |  |  |  |  |
| COc1ccc(-c2cnc3[nH]cc(C#Cc4cccnc4)c3c2)cc1OC | ~3.11 µM | Active | Active | Active |  |  |  |  |  |
| CCN(CC)S(=O)(=O)Nc1cccc(-c2ccc3c(NC(=O)C4CC4)n[nH]c3c2)c1 |  |  | Active |  | Active | Active | Active |  |  |
| C(#Cc1c[nH]c2ncc(-c3ccc4c(c3)OCC3COCCN43)cc12)c1cccnc1 (configuration not stated) | ~2.9 µM | Active | Active | Active |  |  |  |  |  |
| CC(C)C[C@](C)(N)COc1ccc(-c2ccnc(C(F)F)c2)nc1C(F)F [PILAVAPADIN] | ~4.18 µM |  | Active |  |  |  |  | Active | Active |
